Source: patent publication US20110086834A1, “ALKYNYL ALCOHOLS AS KINASE INHIBITORS” (AMGEN INC., priority 2008, published 2011)

target: T1, NIK (Homo sapiens, UniProt Q99558); test: homogenous time resolved fluorescence (HTRF) assay for NIK Ki measurement; assay type: biochemical; details: not given
T1 construct: Both assays utilize a truncated form of NIK containing only the catalytic domain; made in house; host or cells: baculovirus expression system (insect cells implied)
Procedure: Two formats of biochemical assays are implemented: (1) chemiluminescent (CL) assay for NIK IC50 determination; (2) homogenous time resolved fluorescence (HTRF) assay for NIK Ki measurement. […] The NIK proteins are purified with baculovirus expression system and further biotinylated with N-hydroxysuccinamide biotin ester (Sigma). […] The reaction mixtures are then immobilized on a Streptavidin-coated plate (Pierce). […] For the HTRF assay, 10 nM of enzyme are incubated with compounds in the presence of 20, 100, 200, or 500 μM of ATP in a buffer with 20 mM of Hepes pH7.5, 20 mM of MgCl2, 0.2% of Tween 20 and 1 mM of DTT at room temperature for 2 hours.

T1 sequence (Q99558 400-655 limits assumed): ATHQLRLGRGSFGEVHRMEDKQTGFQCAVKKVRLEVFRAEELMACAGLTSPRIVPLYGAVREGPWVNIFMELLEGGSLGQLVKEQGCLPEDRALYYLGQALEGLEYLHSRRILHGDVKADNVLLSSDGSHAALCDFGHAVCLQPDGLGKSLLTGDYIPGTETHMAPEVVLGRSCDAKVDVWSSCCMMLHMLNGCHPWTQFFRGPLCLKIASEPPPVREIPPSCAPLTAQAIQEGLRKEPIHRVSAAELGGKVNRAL

Q: Which Ki does the source give for `COCCOc1cnc(N)nc1-c1c[nH]c2ccc(C#CC(C)(C)O)cc12` [Example 224, 4-(3-(2-Amino-5-(2-methoxyethoxy)-4-pyrimidinyl)-1H-indol-5-yl)-2-methyl-3-butyn-2-ol] here?
A: The Ki was < 1000 nM.

same assay, conditions: truncated NIK (catalytic domain only), autophosphorylation; 10 nM enzyme; 20, 100, 200 or 500 μM ATP; room temperature, 2 hours; read-out: Ki activity in the homogenous time resolved fluorescence (HTRF) assay for NIK

Q: `OC1(C#Cc2ccc3ccn(-c4ccnc(Nc5ccccc5)n4)c3c2)CCCC1` [Example 256, 1-((1-(2-(Phenylamino)-4-pyrimidinyl)-1H-indol-6-yl)ethynyl)cyclopentanol] was tested. Which Ki did it give?
A: Its Ki is < 1000 nM.

Q: Which Ki does the source give for `Cc1csc(C(C)(O)C#Cc2ccc3c(c2)N(c2ccnc(N)n2)CC3)c1` (stereo not shown) [Example 277, 4-(1-(2-amino-4-pyrimidinyl)-2,3-dihydro-1H-indol-6-yl)-2-(4-methyl-2-thienyl)-3-butyn-2-ol] here?
A: Its Ki is < 1000 nM.

Q: How did the Ki turn out when `C[C@@](O)(C#Cc1ccc2c(c1)N(c1nc(N)ncc1Cl)CC21COC1)c1nccs1` (single isomer, unassigned) [Example 82] was run?
A: Its Ki is < 1000 nM.

Q: For `CN1CCC2(C=C(c3nc(N)ncc3Cl)c3cc(C#CC4(O)CCCC4)ccc32)CC1` [Example 222, 1-((3-(2-Amino-5-chloro-4-pyrimidinyl)-1′-methylspiro[indene-1,4′-piperidin]-5-yl)ethynyl)cyclopentanol], which Ki is on record?
A: The Ki was < 1000 nM.

Q: How did the Ki turn out when `CCc1csc(C(C)(O)C#Cc2ccc3c(c2)N(c2nc(N)ncc2Cl)CC3)c1` (stereo not shown) [Example 22, 4-(1-(2-amino-5-chloropyrimidin-4-yl)indolin-6-yl)-2-(4-ethylthiophen-2-yl)but-3-yn-2-ol] was run?
A: Its Ki is < 1000 nM.

Q: For `Cc1cnc(C(C)(O)C#Cc2ccc3c(c2)N(c2ccncc2)CC3(C)C)s1` (stereo not shown) [Example 311, 4-(3,3-Dimethyl-1-(4-pyridinyl)-2,3-dihydro-1H-indol-6-yl)-2-(5-methyl-1,3-thiazol-2-yl)-3-butyn-2-ol], which Ki is on record?
A: Its Ki is < 1000 nM.

Q: With `C[C@](O)(C#Cc1ccc(CN2CCOCC2)c(Nc2nc(N)ncc2Cl)c1)c1nccs1` [Example 162, (S)-4-(3-(2-Amino-5-chloropyrimidin-4-ylamino)-4-(morpholinomethyl)phenyl)-2-(thiazol-2-yl)but-3-yn-2-ol] as the molecule, how does the Ki read?
A: The Ki was < 1000 nM.

Q: How did the Ki turn out when `Cc1cc([C@@](C)(O)C#Cc2ccc3c(c2)N(c2nc(N)ncc2Cl)CC32CCOCC2)no1` (single isomer, unassigned) [Example 211a] was run?
A: Its Ki is 1000 to 30000 nM.

Q: Which Ki does the source give for `COc1cc(C#CC2(O)CCCC2)cc2c1ccn2-c1nc(N)ncc1F` [Example 102, 1-((1-(2-amino-5-fluoropyrimidin-4-yl)-4-methoxy-1H-indol-6-yl)ethynyl)cyclopentanol] here?
A: Its Ki is < 1000 nM.

Q: For `Cc1nc(C(C)(O)C#Cc2ccc3c(c2)N(c2ccnc(N)n2)CC3)cs1` (stereo not shown) [Example 288, 4-(1-(2-Amino-4-pyrimidinyl)-2,3-dihydro-1H-indol-6-yl)-2-(2-methyl-1,3-thiazol-4-yl)-3-butyn-2-ol], which Ki is on record?
A: Its Ki is < 1000 nM.

Q: With `CN1CC2(C1)CN(c1nc(N)ncc1Cl)c1cc(C#CC(C)(O)c3nccs3)ccc12` (racemic) [Example 181, (rac)-4-(1′-(2-amino-5-chloropyrimidin-4-yl)-1-methylspiro[azetidine-3,3′-indoline]-6′-yl)-2-(thiazol-2-yl)but-3-yn-2-ol] as the molecule, how does the Ki read?
A: The Ki was < 1000 nM.

Q: With `Cc1cc(C(C)(O)C#Cc2ccc(C)c(Nc3nc(N)ncc3Cl)c2)no1` (stereo not shown) [Example 161, 4-(3-(2-Amino-5-chloropyrimidin-4-ylamino)-4-methylphenyl)-2-(5-methylisoxazol-3-yl)but-3-yn-2-ol] as the molecule, how does the Ki read?
A: The Ki was < 1000 nM.

Q: Which Ki does the source give for `CC(=O)Nc1cc(C#CC2(O)CCCC2)cc2c1ccn2-c1ccnc(N)n1` [Example 101, N-(1-(2-aminopyrimidin-4-yl)-6-(2-(1-hydroxycyclopentyl)ethynyl)-1H-indol-4-yl)acetamide] here?
A: Its Ki is < 1000 nM.

Q: `Nc1ncc(Cl)c(-c2cnc3ccc(C#CC4(O)CCCC4)cn23)n1` [Example 298, 1-((3-(2-amino-5-chloro-4-pyrimidinyl)imidazo[1,2-a]pyridin-6-yl)ethynyl)-cyclopentanol] was tested. Which Ki did it give?
A: The Ki was < 1000 nM.

Q: Which Ki does the source give for `CC(O)(C#Cc1ccc(OC2CCOCC2)c(Nc2ncncc2Cl)c1)c1nccs1` (stereo not shown) [Example 171, 4-(3-(5-Chloropyrimidin-4-ylamino)-4-(tetrahydro-2H-pyran-4-yloxy)phenyl)-2-(thiazol-2-yl)but-3-yn-2-ol] here?
A: The Ki was < 1000 nM.

Q: How did the Ki turn out when `C[C@](O)(C#Cc1ccc2c(c1)N(c1nc(N)ncc1Cl)C[C@@]21CCOC1)c1nccs1` (stereo in doubt) [Example 199, (2S)-4-((3R*)-1′-(2-Amino-5-chloro-4-pyrimidinyl)-1′,2′,4,5-tetrahydrospiro[furan-3,3′-indol]-6′-yl)-2-(1,3-thiazol-2-yl)-3-butyn-2-ol] was run?
A: The Ki was 1000 to 30000 nM.

Q: How did the Ki turn out when `CNc1nccc(-c2c[nH]c3ccc(C#CC4(O)CCCC4)cc23)n1` [Example 111, 1-(2-(3-(2-(methylamino)pyrimidin-4-yl)-1H-indol-5-yl)ethynyl)cyclopentanol] was run?
A: The Ki was < 1000 nM.

Q: For `Cn1c2c(c3cc(C#CC4(O)CCCC4)ccc31)-c1nc(N)ncc1CN(Cc1ccccn1)C2=O` [Example 247, 2-Amino-1′-((1-hydroxycyclopentyl)ethynyl)-8-methyl-6-(2-pyridinylmethyl)-5,8-dihydropyrimido[4′,′:5,6]azepino[3,4-b]indol-7(6H)-one], which Ki is on record?
A: The Ki was < 1000 nM.

Q: For `Cc1cc(C(C)(O)C#Cc2ccc(O[C@H]3CCOC3)c(Nc3nc(N)ncc3Cl)c2)no1` (stereo partly shown) [Example 156], which Ki is on record?
A: The Ki was < 1000 nM.

Q: For `CN1CCC2(CC1)CN(c1nc(N)ncc1Cl)c1cc(C#CC(C)(O)c3nccs3)ccc12` (stereo not shown) [Example 282, 4-(1-(2-Amino-5-chloro-4-pyrimidinyl)-1′-methyl-1,2-dihydrospiro[indole-3,4′-piperidin]-6-yl)-2-(1,3-thiazol-2-yl)-3-butyn-2-ol], which Ki is on record?
A: The Ki was < 1000 nM.

Q: For `Cc1cnc(C(C)(O)C#Cc2ccc3ncc(-c4nc(N)ncc4Cl)n3c2)s1` (stereo not shown) [Example 300, 4-(3-(2-Amino-5-chloro-4-pyrimidinyl)imidazo[1,2-a]pyridin-6-yl)-2-(5-methyl-1,3-thiazol-2-yl)-3-butyn-2-ol], which Ki is on record?
A: The Ki was < 1000 nM.

Q: With `CC(C)(O)C#Cc1ccc2c(c1)N(c1ccnc(N)n1)CC2` [Example 271, 4-(1-(2-Amino-4-pyrimidinyl)-2,3-dihydro-1H-indol-6-yl)-2-methyl-3-butyn-2-ol] as the molecule, how does the Ki read?
A: The Ki was < 1000 nM.

Q: With `CC(O)(C#Cc1ccc2c(c1)N(c1nc(N)ncc1Cl)CC21CCCC1)c1nccs1` (stereo not shown) [Example 317, 4-(1′-(2-amino-5-chloro-4-pyrimidinyl)-1′,2′-dihydrospiro[cyclopentane-1,3′-indol]-6′-yl)-2-(1,3-thiazol-2-yl)-3-Butyn-2-ol] as the molecule, how does the Ki read?
A: Its Ki is < 1000 nM.

Q: `CC(O)(C#Cc1ccc2c(c1)N(c1nc(N)ncc1Cl)CC2)c1ccn[nH]1` (stereo not shown) [Example 78, 4-(1-(2-Amino-5-chloro-4-pyrimidinyl)-2,3-dihydro-1H-indol-6-yl)-2-(1H-pyrazol-5-yl)-3-butyn-2-ol] was tested. Which Ki did it give?
A: Its Ki is < 1000 nM.

Q: Which Ki does the source give for `COCCOc1ccc(Nc2ncnc(N3CC(C)(C)c4ccc(C#CC5(O)CCCC5)cc43)n2)cc1` [Example 17, 1-(2-(1-(4-(4-(2-methoxyethoxy)phenylamino)-1,3,5-triazin-2-yl)-3,3-dimethylindolin-6-yl)ethynyl)cyclopentanol] here?
A: Its Ki is 1000 to 30000 nM.

Q: `COc1cc(C#CC2(O)CCCC2)cc2c1ccn2-c1ccnc(N)n1` [Example 98, 1-(2-(1-(2-aminopyrimidin-4-yl)-4-methoxy-1H-indol-6-yl)ethynyl)cyclopentanol] was tested. Which Ki did it give?
A: The Ki was < 1000 nM.

Q: `CCC(C)(O)C#Cc1ccc2c(c1)N(c1ccnc(N)n1)CC2` (stereo not shown) [Example 265, 1-(1-(2-Amino-4-pyrimidinyl)-2,3-dihydro-1H-indol-6-yl)-3-methyl-1-pentyn-3-ol] was tested. Which Ki did it give?
A: Its Ki is < 1000 nM.
